# Results taken from PubChem BioAssay (NCI).
#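 In this assay, cells in 96-well plates receive the compound at five concentrations for 48 hours. Endpoints are linearly interpolated between the surrounding concentrations. Here, GI50 denotes the concentration required for 50% inhibition of growth. TGI marks complete inhibition of growth.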
# Experiments:
# Assay in all cases: inhibition of tumour cell growth, NCI panel, 48 h
# OVCAR-5 ovarian = system: OVCAR-5 ovarian
# NCI-H226 lung = system: NCI-H226 lung
# SK-OV-3 ovarian = system: SK-OV-3 ovarian
# CCRF-CEM leukemia = system: CCRF-CEM leukemia
# HCT-15 colon = system: HCT-15 colon
# NCI-H23 lung = system: NCI-H23 lung
# NCI-H522 lung = system: NCI-H522 lung
# MDA-MB-231 breast = system: MDA-MB-231 breast
# UO-31 renal = system: UO-31 renal
# U251 CNS = system: U251 CNS
# UACC-62 melanoma = system: UACC-62 melanoma
# IGROV1 ovarian = system: IGROV1 ovarian
# T-47D breast = system: T-47D breast
# NCI/ADR-RES ovarian = system: NCI/ADR-RES ovarian
# MOLT-4 leukemia = system: MOLT-4 leukemia
# A498 renal = system: A498 renal
# HCT-116 colon = system: HCT-116 colon
# HT29 colon = system: HT29 colon
# SN12C renal = system: SN12C renal
# LOX IMVI melanoma = system: LOX IMVI melanoma
# M14 melanoma = system: M14 melanoma
# MCF7 breast = system: MCF7 breast
# HS 578T breast = system: HS 578T breast
# SNB-75 CNS = system: SNB-75 CNS
# ACHN renal = system: ACHN renal
# HL-60(TB) leukemia = system: HL-60(TB) leukemia
# SF-268 CNS = system: SF-268 CNS
# OVCAR-3 ovarian = system: OVCAR-3 ovarian
# K-562 leukemia = system: K-562 leukemia
# SK-MEL-28 melanoma = system: SK-MEL-28 melanoma
# A549 NSCLC = system: A549 NSCLC
# TK-10 renal = system: TK-10 renal
# SNB-19 CNS = system: SNB-19 CNS
# PC-3 prostate = system: PC-3 prostate
# EKVX NSCLC = system: EKVX NSCLC
# SW-620 colon = system: SW-620 colon
# UACC-257 melanoma = system: UACC-257 melanoma
# CAKI-1 renal = system: CAKI-1 renal
# SK-MEL-2 melanoma = system: SK-MEL-2 melanoma
# SF-539 CNS = system: SF-539 CNS
# OVCAR-8 ovarian = system: OVCAR-8 ovarian
# BT-549 breast = system: BT-549 breast
# 786-0 renal = system: 786-0 renal
# HOP-92 NSCLC = system: HOP-92 NSCLC
# MALME-3M melanoma = system: MALME-3M melanoma
# DU-145 prostate = system: DU-145 prostate
# SK-MEL-5 melanoma = system: SK-MEL-5 melanoma
# COLO 205 colon = system: COLO 205 colon
# MDA-MB-435 = system: MDA-MB-435
# NCI-H460 lung = system: NCI-H460 lung
# SF-295 CNS = system: SF-295 CNS
# OVCAR-4 ovarian = system: OVCAR-4 ovarian
# KM12 colon = system: KM12 colon
# HOP-62 NSCLC = system: HOP-62 NSCLC
# HCC-2998 colon = system: HCC-2998 colon
# RPMI-8226 leukemia = system: RPMI-8226 leukemia
# RXF 393 renal = system: RXF 393 renal
# SR leukemia = system: SR leukemia
compound,measurement,setting,value
C#Cc1cccc(NC(=O)c2cccc(NC(=O)CCl)c2)c1,GI50,OVCAR-5 ovarian,15.8 µM
same,TGI,OVCAR-5 ovarian,40.8 µM
same,GI50,NCI-H226 lung,19.8 µM
same,TGI,NCI-H226 lung,59.4 µM
same,GI50,SK-OV-3 ovarian,56.4 µM
same,TGI,SK-OV-3 ovarian,> 82.5 µM
same,GI50,CCRF-CEM leukemia,7.29 µM
same,TGI,CCRF-CEM leukemia,54.5 µM
same,GI50,HCT-15 colon,5.2 µM
same,TGI,HCT-15 colon,19.1 µM
same,GI50,NCI-H23 lung,13.4 µM
same,TGI,NCI-H23 lung,29.9 µM
same,GI50,NCI-H522 lung,12.7 µM
same,TGI,NCI-H522 lung,33.4 µM
same,GI50,MDA-MB-231 breast,16 µM
same,TGI,MDA-MB-231 breast,37.2 µM
same,GI50,UO-31 renal,12 µM
same,TGI,UO-31 renal,22.9 µM
same,GI50,U251 CNS,12.1 µM
same,TGI,U251 CNS,28.4 µM
same,GI50,UACC-62 melanoma,26.9 µM
same,TGI,UACC-62 melanoma,> 82.5 µM
same,GI50,IGROV1 ovarian,5.79 µM
same,TGI,IGROV1 ovarian,19.1 µM
same,GI50,T-47D breast,30.2 µM
same,TGI,T-47D breast,> 82.5 µM
same,GI50,NCI/ADR-RES ovarian,17.3 µM
same,TGI,NCI/ADR-RES ovarian,53.1 µM
same,GI50,MOLT-4 leukemia,6.71 µM
same,TGI,MOLT-4 leukemia,61.2 µM
same,GI50,A498 renal,6.14 µM
same,TGI,A498 renal,> 82.5 µM
same,GI50,HCT-116 colon,7.98 µM
same,TGI,HCT-116 colon,44.6 µM
same,GI50,HT29 colon,8.18 µM
same,TGI,HT29 colon,33.4 µM
same,GI50,SN12C renal,14.9 µM
same,TGI,SN12C renal,49.1 µM
same,GI50,LOX IMVI melanoma,8.87 µM
same,TGI,LOX IMVI melanoma,21.7 µM
same,GI50,M14 melanoma,32.2 µM
same,TGI,M14 melanoma,> 82.5 µM
same,GI50,MCF7 breast,12.8 µM
same,TGI,MCF7 breast,> 82.5 µM
same,GI50,HS 578T breast,17.4 µM
same,TGI,HS 578T breast,76.2 µM
same,GI50,SNB-75 CNS,12.3 µM
same,TGI,SNB-75 CNS,75.5 µM
same,GI50,ACHN renal,15.2 µM
same,TGI,ACHN renal,42.9 µM
same,GI50,HL-60(TB) leukemia,13.2 µM
same,TGI,HL-60(TB) leukemia,39.7 µM
same,GI50,SF-268 CNS,23 µM
same,TGI,SF-268 CNS,> 82.5 µM
same,GI50,OVCAR-3 ovarian,14.2 µM
same,TGI,OVCAR-3 ovarian,29.4 µM
same,GI50,K-562 leukemia,7.74 µM
same,TGI,K-562 leukemia,> 82.5 µM
same,GI50,SK-MEL-28 melanoma,43.1 µM
same,TGI,SK-MEL-28 melanoma,> 82.5 µM
same,GI50,A549 NSCLC,21.6 µM
same,TGI,A549 NSCLC,> 82.5 µM
same,GI50,TK-10 renal,25.9 µM
same,TGI,TK-10 renal,> 82.5 µM
same,GI50,SNB-19 CNS,31.1 µM
same,TGI,SNB-19 CNS,> 82.5 µM
same,GI50,PC-3 prostate,18.9 µM
same,TGI,PC-3 prostate,70.7 µM
same,GI50,EKVX NSCLC,27.2 µM
same,TGI,EKVX NSCLC,> 82.5 µM
same,GI50,SW-620 colon,4.55 µM
same,TGI,SW-620 colon,17 µM
same,GI50,UACC-257 melanoma,54.7 µM
same,TGI,UACC-257 melanoma,> 82.5 µM
same,GI50,CAKI-1 renal,31.5 µM
same,TGI,CAKI-1 renal,> 82.5 µM
same,GI50,SK-MEL-2 melanoma,62.8 µM
same,TGI,SK-MEL-2 melanoma,> 82.5 µM
same,GI50,SF-539 CNS,13 µM
same,TGI,SF-539 CNS,24.5 µM
same,GI50,OVCAR-8 ovarian,17.5 µM
same,TGI,OVCAR-8 ovarian,> 82.5 µM
same,GI50,BT-549 breast,17.8 µM
same,TGI,BT-549 breast,70.4 µM
same,GI50,786-0 renal,14.2 µM
same,TGI,786-0 renal,28.1 µM
same,GI50,HOP-92 NSCLC,14.7 µM
same,TGI,HOP-92 NSCLC,34.6 µM
same,GI50,MALME-3M melanoma,15.7 µM
same,TGI,MALME-3M melanoma,41.5 µM
same,GI50,DU-145 prostate,29.2 µM
same,TGI,DU-145 prostate,> 82.5 µM
same,GI50,SK-MEL-5 melanoma,15.1 µM
same,TGI,SK-MEL-5 melanoma,28 µM
same,GI50,COLO 205 colon,22 µM
same,TGI,COLO 205 colon,> 82.5 µM
same,GI50,MDA-MB-435,32.3 µM
same,TGI,MDA-MB-435,> 82.5 µM
same,GI50,NCI-H460 lung,5.49 µM
same,TGI,NCI-H460 lung,20 µM
same,GI50,SF-295 CNS,51.1 µM
same,TGI,SF-295 CNS,> 82.5 µM
same,GI50,OVCAR-4 ovarian,15.8 µM
same,TGI,OVCAR-4 ovarian,33.9 µM
same,GI50,KM12 colon,17.4 µM
same,TGI,KM12 colon,60.6 µM
same,GI50,HOP-62 NSCLC,27.8 µM
same,TGI,HOP-62 NSCLC,> 82.5 µM
same,GI50,HCC-2998 colon,29.8 µM
same,TGI,HCC-2998 colon,> 82.5 µM
same,GI50,RPMI-8226 leukemia,17.3 µM
same,TGI,RPMI-8226 leukemia,59.3 µM
same,GI50,RXF 393 renal,12.7 µM
same,TGI,RXF 393 renal,29.8 µM
same,GI50,SR leukemia,4.79 µM
same,TGI,SR leukemia,43.1 µM
